24 compounds from patent publication US20240182481A1 (Tango Therapeutics, Inc., priority 2021, published 2024) can be followed below.

Usually IC50 stands for the concentration at which inhibition is half-maximal.

The test system of one test is monoubiquitinated PCNA. The test is described as follows: AlphaLISA assay measuring monoubiquitinated PCNA in MDA-MB-436. The format is cell-based. As to conditions: read-out: Alpha LISA IC50. From the text: Table 1 also indicates IC50 values for exemplary compounds in an AlphaLISA assay measuring monoubiquitinated PCNA in a BRCA1 mutant cell line (MDA-MB-436; column 7).
On the technique in general: In Alpha technology, singlet oxygen from a donor bead excites a nearby acceptor bead.

Test [1] relates to HCC1954 (BRCA1 WT) cell line. The test is described as follows: Viability assay in BRCA1 WT cell line HCC1954. The format is cell-based. As to conditions: read-out: HCC 1954 IC50 rel IC50. An excerpt: (§1) Table 1 also indicates IC50 values in a viability assay for a non-isogenic pair of BRCA1 mutant (column 5—MDA-MB-436) and BRCA1 WT (column 6—HCC1954) cell lines. These values indicate the effect of treatment with compound on cell survival.

The subject of test [2] is MDA-MB-436 (BRCA1 mutant) cell line. The test is described as follows: Viability assay in BRCA1 mutant cell line MDA-MB-436. The settings on record: BRCA1 mutant MDA-MB-436, read-out: MDA-MB-436 rel IC50. In kind it is cell-based.
Excerpt: as §1

The target in a further test is USP1-UAF1 (Homo sapiens, UniProt O94782). The test is described as follows: Ubiquitin Rhodamine assay for USP1-UAF1 activity. The format is biochemical. The protocol: Certain compounds of the disclosure were assessed for USP1-UAF1 activity in a Ubiquitin Rhodamine assay as described in Example 135.
USP1-UAF1, sequence (O94782 whole entry): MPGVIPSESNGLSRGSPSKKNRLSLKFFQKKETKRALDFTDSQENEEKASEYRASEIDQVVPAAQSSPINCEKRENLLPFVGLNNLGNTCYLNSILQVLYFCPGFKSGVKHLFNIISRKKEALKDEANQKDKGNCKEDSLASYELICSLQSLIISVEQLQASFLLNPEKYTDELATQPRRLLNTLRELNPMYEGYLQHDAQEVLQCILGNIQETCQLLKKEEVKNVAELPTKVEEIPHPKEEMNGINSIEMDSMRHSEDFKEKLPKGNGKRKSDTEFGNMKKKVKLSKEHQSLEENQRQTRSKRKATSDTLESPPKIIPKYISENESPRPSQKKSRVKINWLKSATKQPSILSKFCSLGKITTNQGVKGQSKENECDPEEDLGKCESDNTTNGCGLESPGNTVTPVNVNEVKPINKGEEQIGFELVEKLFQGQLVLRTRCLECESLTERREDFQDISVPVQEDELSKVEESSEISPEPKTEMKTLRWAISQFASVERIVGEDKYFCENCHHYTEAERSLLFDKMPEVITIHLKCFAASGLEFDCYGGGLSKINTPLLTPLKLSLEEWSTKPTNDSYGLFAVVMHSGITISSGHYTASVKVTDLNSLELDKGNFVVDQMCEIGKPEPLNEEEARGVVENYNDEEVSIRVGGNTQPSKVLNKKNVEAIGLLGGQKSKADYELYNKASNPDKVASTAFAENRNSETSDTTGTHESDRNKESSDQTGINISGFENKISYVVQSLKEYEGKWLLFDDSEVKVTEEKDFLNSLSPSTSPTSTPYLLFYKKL
USP1-UAF1, sequence (Q8TAF3 whole entry partner): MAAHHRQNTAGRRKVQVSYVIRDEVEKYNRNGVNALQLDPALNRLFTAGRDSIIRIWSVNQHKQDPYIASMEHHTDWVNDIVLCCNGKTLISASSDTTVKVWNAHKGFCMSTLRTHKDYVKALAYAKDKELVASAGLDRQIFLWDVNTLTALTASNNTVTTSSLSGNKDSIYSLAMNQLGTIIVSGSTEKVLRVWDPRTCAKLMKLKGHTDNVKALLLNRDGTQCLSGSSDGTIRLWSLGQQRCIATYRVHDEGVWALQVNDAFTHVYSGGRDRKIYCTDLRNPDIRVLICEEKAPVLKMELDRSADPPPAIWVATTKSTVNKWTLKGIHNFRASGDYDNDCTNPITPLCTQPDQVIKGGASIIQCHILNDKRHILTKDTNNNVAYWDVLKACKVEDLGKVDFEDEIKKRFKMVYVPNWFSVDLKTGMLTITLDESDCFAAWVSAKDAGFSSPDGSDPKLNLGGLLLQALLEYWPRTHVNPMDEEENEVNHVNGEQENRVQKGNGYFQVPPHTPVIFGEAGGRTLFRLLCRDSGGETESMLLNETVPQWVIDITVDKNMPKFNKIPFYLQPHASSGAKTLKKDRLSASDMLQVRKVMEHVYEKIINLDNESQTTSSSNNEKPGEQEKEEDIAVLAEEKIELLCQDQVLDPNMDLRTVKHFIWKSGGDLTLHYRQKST
Where [3] appears, read: Homo sapiens, MDA-MB-436, viability.

Like-named read-outs stand apart in the source and are kept apart here.

Turning to `COc1nc(C)nc(C2CC2)c1-c1ncc2[nH]cc(Cc3ccc(-c4nc(C(F)(F)F)cn4C)cc3)c2n1` [Compound 142, 2-(4-cyclopropyl-6-methoxy-2-methylpyrimidin-5-yl)-7-(4-(1-methyl-4-(trifluoromethyl)-1H-imidazol-2-yl)benzyl)-5H-pyrrolo[3,2-d]pyrimidine], the IC50 in the test with monoubiquitinated PCNA (Homo sapiens) is below 100 nM; in test [1] (Homo sapiens) it was at least 10000 nM; in test [2] (setting [3]), below 100 nM; against USP1-UAF1 it was 30 to 100 nM.
`CNc1ncnc(C2CC2)c1-c1ncc2[nH]cc(Cc3ccc(-c4nc(C(F)(F)F)cn4C)cc3)c2n1` [Compound 175]: the IC50 is 100 to 250 nM in the test with monoubiquitinated PCNA (Homo sapiens), at least 10000 nM in test [1] (Homo sapiens), 100 to 250 nM in test [2] (setting [3]) and 100 to 10000 nM at USP1-UAF1.
Consider `COc1ncnc(C2CC2)c1-c1ncc2[nH]nc(Cc3ccc(-c4nc(C#N)cn4C)cc3)c2n1` [Compound 45, 2-[4-[[5-(4-cyclopropyl-6-methoxy-pyrimidin-5-yl)-1H-pyrazolo[4,3-d]pyrimidin-3-yl]methyl]phenyl]-1-methyl-imidazole-4-carbonitrile], for which the IC50 was 250 to 10000 nM in the test on monoubiquitinated PCNA (Homo sapiens), at least 10000 nM in test [1] (Homo sapiens), 250 to 10000 nM in test [2] (setting [3]) and 100 to 10000 nM on USP1-UAF1.
On to `COc1ncnc(C2CC2)c1-c1nc(C)c2[nH]nc(Cc3ccc(-c4nc(C(F)(F)F)cn4C)cc3)c2n1` [Compound 115, 5-(4-cyclopropyl-6-methoxypyrimidin-5-yl)-7-methyl-3-(4-(1-methyl-4-(trifluoromethyl)-1H-imidazol-2-yl)benzyl)-1H-pyrazolo[4,3-d]pyrimidine], for which the IC50 is below 100 nM in the test with monoubiquitinated PCNA (Homo sapiens), at least 10000 nM in test [1] (Homo sapiens), below 100 nM in test [2] (setting [3]) and below 30 nM on USP1-UAF1.
Regarding `COc1ncnc(C2CC2)c1-c1nc(F)c2[nH]cc(Cc3ccc(-c4nc(C(F)(F)F)cn4C)cc3)c2n1` [Compound 110], the IC50 with monoubiquitinated PCNA (Homo sapiens) was 250 to 10000 nM; in test [1] (Homo sapiens), at least 10000 nM; in test [2] (setting [3]), 100 to 250 nM; on USP1-UAF1, below 30 nM.
For `COc1ncnc(C#N)c1-c1ncc2[nH]cc(Cc3ccc(-c4nc(C(F)(F)F)cn4C)cc3)c2n1` [Compound 134] the same measures were 250 to 10000 nM, at least 10000 nM, 100 to 250 nM and 30 to 100 nM.
For `Cn1cc(C(F)(F)F)nc1-c1ccc(Cc2c[nH]c3cnc(-c4c(C5CC5)ncnc4C4CC4)nc23)cc1` [Compound 193, 2-(4,6-dicyclopropylpyrimidin-5-yl)-7-[[4-[1-methyl-4-(trifluoromethyl)imidazol-2-yl]phenyl]methyl]-5H-pyrrolo[3,2-d]pyrimidine], in that order: below 100 nM, at least 10000 nM, below 100 nM and below 30 nM.
On to `COc1ncnc(C2CC2)c1-c1ncc2[nH]cc(Cc3ccc(-c4nc(C(F)(F)F)cn4C)cc3F)c2n1` [Compound 120, 2-(4-cyclopropyl-6-methoxy-pyrimidin-5-yl)-7-[[2-fluoro-4-[1-methyl-4-(trifluoromethyl)imidazol-2-yl]phenyl]methyl]-5H-pyrrolo[3,2-d]pyrimidine], for which the IC50 with monoubiquitinated PCNA (Homo sapiens) was below 100 nM; in test [1] (Homo sapiens), at least 10000 nM; in test [2] (setting [3]) it was below 100 nM; against USP1-UAF1, below 30 nM.
Regarding `Cn1cc(C(F)(F)F)nc1-c1ccc(C(O)c2c[nH]c3cnc(-c4c(OC(F)F)ncnc4C4CC4)nc23)cc1` (single isomer, unassigned) [Compound 141], the IC50 is below 100 nM in the test with monoubiquitinated PCNA, at least 10000 nM in test [1], below 100 nM in test [2] (viability) and below 30 nM against USP1-UAF1.
Turning to `COCCn1cc(Cc2ccc(-c3nc(C(F)(F)F)cn3C)cc2)c2nc(-c3ccccc3C(C)C)ncc21` [Compound 83, 2-(2-isopropylphenyl)-5-(2-methoxyethyl)-7-[[4-[1-methyl-4-(trifluoromethyl)imidazol-2-yl]phenyl]methyl]pyrrolo[3,2-d]pyrimidine], the concentration for half-maximal inhibition (IC50) in the test on monoubiquitinated PCNA (Homo sapiens) was below 100 nM; in test [1] (Homo sapiens), at least 10000 nM; in test [2] (setting [3]), below 100 nM; at USP1-UAF1, below 30 nM.
In the case of `COc1ncnc(C2CC2)c1-c1ncc2[nH]nc(Cc3ccc(-c4nc(C(F)(F)F)cn4C4COC4)cc3)c2n1` [Compound 133, 5-(4-cyclopropyl-6-methoxy-pyrimidin-5-yl)-3-[[4-[1-(oxetan-3-yl)-4-(trifluoromethyl)imidazol-2-yl]phenyl]methyl]-1H-pyrazolo[4,3-d]pyrimidine], the IC50 in the test with monoubiquitinated PCNA (Homo sapiens) is 100 to 250 nM; in test [1] (Homo sapiens), at least 10000 nM; in test [2] (setting [3]) it was below 100 nM; against USP1-UAF1, 30 to 100 nM.
Consider `COc1cccc(OC)c1-c1ncc2[nH]nc(Cc3ccc(-c4nc(C(F)(F)F)cn4C)cc3)c2n1` [Compound 136], for which the IC50 in the test with monoubiquitinated PCNA (Homo sapiens) was 250 to 10000 nM; in test [1] (Homo sapiens) it was at least 10000 nM; in test [2] (setting [3]), 100 to 250 nM; against USP1-UAF1, below 30 nM.
For `COc1ncnc(C2CC2)c1-c1ncc2c(n1)c(Cc1ccc(-c3nc(C(F)(F)F)cn3C)cc1)cn2CC(F)(F)F` [Compound 125, 2-(4-cyclopropyl-6-methoxy-pyrimidin-5-yl)-7-[[4-[1-methyl-4-(trifluoromethyl)imidazol-2-yl]phenyl]methyl]-5-(2,2,2-trifluoroethyl)pyrrolo[3,2-d]pyrimidine] the same measures were below 100 nM, 250 to 10000 nM, below 100 nM and below 30 nM.
For `C[C@H](Oc1ncccc1-c1ncc2[nH]cc(Cc3ccc(-c4nc(C(F)(F)F)cn4C)cc3)c2n1)C(F)(F)F` (single isomer, unassigned) [Compound 51], in that order: below 100 nM, 250 to 10000 nM, below 100 nM and below 30 nM.
For the compound `COc1ncnc(C2CC2)c1-c1ncc2[nH]nc(Cc3ccc(-c4nc(C(F)(F)F)cn4C4CC4)cc3)c2n1` [Compound 206], the IC50 in the test on monoubiquitinated PCNA (Homo sapiens) was below 100 nM; in test [1] (Homo sapiens) it was 250 to 10000 nM; in test [2] (setting [3]), below 100 nM; against USP1-UAF1 it was below 30 nM.
For `COc1nccc(C2CC2)c1-c1ncc2[nH]nc(Cc3ccc(-c4nc(C(F)(F)F)cn4C)cc3)c2n1` [Compound 205, 5-(4-cyclopropyl-2-methoxy-3-pyridyl)-3-[[4-[1-methyl-4-(trifluoromethyl)imidazol-2-yl]phenyl]methyl]-1H-pyrazolo[4,3-d]pyrimidine], the IC50 was below 100 nM in the test with monoubiquitinated PCNA (Homo sapiens), at least 10000 nM in test [1] (Homo sapiens), below 100 nM in test [2] (setting [3]) and below 30 nM against USP1-UAF1.
For `COc1ncnc(C2CC2)c1-c1ncc2[nH]cc(Cc3ccc(-c4nc(C(F)(F)F)cn4C4CC4)cc3)c2n1` [Compound 81, 2-(4-cyclopropyl-6-methoxy-pyrimidin-5-yl)-7-[[4-[1-cyclopropyl-4-(trifluoromethyl)imidazol-2-yl]phenyl]methyl]-5H-pyrrolo[3,2-d]pyrimidine], the IC50 is below 100 nM in the test with monoubiquitinated PCNA (Homo sapiens), 250 to 10000 nM in test [1] (Homo sapiens), below 100 nM in test [2] (setting [3]) and below 30 nM against USP1-UAF1.
For the compound `COc1ncnc(C(C)(C)C)c1-c1ncc2c(n1)c(Cc1ccc(-c3nc(C(F)(F)F)cn3C)cc1)nn2C` [Compound 96], the IC50 with monoubiquitinated PCNA (Homo sapiens) is 100 to 250 nM; in test [1] (Homo sapiens) it was at least 10000 nM; in test [2] (setting [3]), 100 to 250 nM; against USP1-UAF1, 30 to 100 nM.
Take `COc1ccnc(C2CC2)c1-c1ncc2[nH]nc(Cc3ccc(-c4nc(C(F)(F)F)cn4C)cc3)c2n1` [Compound 116]: the IC50 with monoubiquitinated PCNA (Homo sapiens) was 100 to 250 nM; in test [1] (Homo sapiens), at least 10000 nM; in test [2] (setting [3]), below 100 nM; against USP1-UAF1 it was below 30 nM.
For `COc1ncnc(C2CC2)c1-c1ncc2[nH]nc(Cc3ccc(-c4nc(C(F)(F)F)cn4C)c(F)c3)c2n1` [Compound 90, 5-(4-cyclopropyl-6-methoxypyrimidin-5-yl)-3-(3-fluoro-4-(1-methyl-4-(trifluoromethyl)-1H-imidazol-2-yl)benzyl)-1H-pyrazolo[4,3-d]pyrimidine] the same measures were below 100 nM, at least 10000 nM, below 100 nM and below 30 nM.
For `Cn1cc(C(F)(F)F)nc1-c1ccc(C(O)c2c[nH]c3cnc(-c4c(OC(F)F)ncnc4C4CC4)nc23)cc1` (single isomer, unassigned) [Compound 103] the same measures were below 100 nM, at least 10000 nM, below 100 nM and 30 to 100 nM.
For `CC(C)c1ccccc1-c1ncc2[nH]cc(C(C)(O)c3ccc(-c4nc(C(F)(F)F)cn4C)cc3)c2n1` (stereo not drawn) [Compound 48, 1-[2-(2-isopropylphenyl)-5H-pyrrolo[3,2-d]pyrimidin-7-yl]-1-[4-[1-methyl-4-(trifluoromethyl)imidazol-2-yl]phenyl]ethanol] the same measures were below 100 nM, at least 10000 nM, below 100 nM and below 30 nM.
Take `CC(C)c1ccccc1-c1ncc2[nH]cc([C@H](C)c3ccc(-c4nc(C(F)(F)F)cn4C)cc3)c2n1` (single isomer, unassigned) [Compound 64]: the IC50 was below 100 nM with monoubiquitinated PCNA (Homo sapiens), 250 to 10000 nM in test [1] (Homo sapiens), below 100 nM in test [2] (setting [3]) and below 30 nM against USP1-UAF1.
For the compound `CC(C)Oc1ncnc(C2CC2)c1-c1ncc2[nH]nc(Cc3ccc(-c4nc(C(F)(F)F)cn4C)cc3)c2n1` [Compound 102], the IC50 with monoubiquitinated PCNA (Homo sapiens) is 100 to 250 nM; in test [1] (Homo sapiens), at least 10000 nM; in test [2] (setting [3]) it was 100 to 250 nM; against USP1-UAF1, below 30 nM.
